The values below come from patent publication US20190136321A1, “USE OF TRANSLATIONAL PROFILING TO IDENTIFY TARGET MOLECULES FOR THERAPEUTIC TREATMENT” (The Regents of The University of California, priority 2013, published 2019).

The subject of assay [1] is Normal human lung fibroblasts. Put plainly: Procollagen Type 1 C-Peptide (PIP EIA) in TGF-β treated fibroblasts. The class given is cell-based. As to conditions: 10 ng/ml TGF-β, 24 hours. The method, then: Normal human lung fibroblasts (Lonza #CC-2512) were cultured in DMEM+10% FBS supplemented with Penicillin, Streptomycin and Glutamax (Invitrogen) at 37° C. in a humidified incubator with 5% CO2. Cell passage numbers 2 through 5 were used for all experiments.
(§1) On Day 0, fibroblasts were seeded and cultured under normal conditions overnight. On Day 1, media was removed, cells were washed with PBS and then incubated for 48 hrs in serum free media (DMEM supplemented with penicillin, streptomycin, and glutamax). On Day 3, media was removed and cells were cultured for 24 hrs with fresh serum free media ±PAMi and ±10 ng/ml TGF-β. After this 24 hour incubation, about 6×10^6 cells/10 cm plate and about 1×10^6 cells/well of a 6-well plate were used for ribosomal profiling and western blot analysis, respectively.
Culture Media was collected, centrifuged to pellet cellular debris, and stored at −80° C. Procollagen Type 1 C-Peptide (PIPC) was quantified using the (PIP) EIA kit (Clontech Cat# MK101) according to manufacturer's instructions.

Assay [2] has as its system Normal human lung fibroblasts. Put plainly: Ribosomal profiling of TGF-β treated fibroblasts. The class given is cell-based. On the procedure: as §1
Cells were washed with cold PBS supplemented with cycloheximide and lysed with 1× mammalian lysis buffer for 10 min on ice. Lysates were clarified by centrifugation for 10 min at 14,000 rpm and supernatants were collected. Cell lysates were processed to generate the ribosomal protected fragments and total mRNA according to the instructions included with the ARTseq Ribosome Profiling Kit. Sequencing of total RNA (RNA) and of ribosome-protected fragments of RNA (RPF) was carried out with standard Illumina rna seq methodology.
RNA-seq reads were processed with tools from the FASTX-Toolkit (fastq_quality_trimmer, fastx_clipper and fastx_trimmer). Unprocessed and processed reads were evaluated for a variety of quality measures using FastQC. Processed reads were mapped to the human genome using Tophat. Gene-by-gene assessment of the number of fragments strictly and uniquely mapping to the coding region of each gene was conducted using HTSeq-count, a component of the HTSeq package. Differential analyses of the transforming effect of TGF-β on fibroblasts and effect of PAMi treatment on this transformation were carried out with the software packages DESeq for transcription (RNA counts) and translational rate (RPF counts) and BABEL for translational efficiency based upon ribosomal occupancy as a function of RNA level (RNA and RPF counts). Genes with low counts in either RPF or RNA were excluded from differential analyses. Pathway and network analyses of differential data was conducted using Ingenuity Pathway Analysis (IPA).

As for TGF-β, the “increase in procollagen production” value in assay [1] is reported as “approximately 7 fold”. Also, in assay [2] (fibroblasts treated with TGF-β, 141 pathway genes), the “genes in the pathway having an increase in translational efficiency” value was 118 of the 141. Also, the “mean translational efficiency of the 141 pathway-associated genes” value in assay [2] (fibroblasts upon TGF-β treatment) was −1.05 log 2 relative to population mean. Further, in assay [2] (fibroblasts, TGF-β), the “mean increase in translational efficiency, all genes in the pathway (printed: these 12 genes)” value worked out at 0.65 log 2 and the “mean increase in translational efficiency, subset of 12 genes” value is recorded as 1.3 log 2.
